The results in this text go back to ChEMBL document CHEMBL5576112, “Synthesis, in silico, in vitro evaluation of furanyl- and thiophenyl-3-phenyl-1H-indole-2-carbohydrazide derivatives as tubulin inhibitors and anticancer agents” (RSC Med Chem, 2024).

Molecules are shown by their SMILES. pIC50: −log10 of the molar value. Active and inactive are the calls of the source. No cut-off for these calls is given here. A value given as a limit tells only on which side of the number the result lay.

The test system of series [1] is NCI/ADR-RES. Description: Growth inhibition of human NCI-ADR-RES cells measured after 48 hrs by sulforhodamine B assay. The series is classed as functional. The following applies: for CC50: read-out: LC50 (the source's name).
The test system of series [2] is SF-539. The series can be described thus: Growth inhibition of human SF-539 cells at 10 uM measured after 48 hrs by sulforhodamine B assay. The series is classed as functional, cell-based. On the technique in general: The SRB assay estimates cell density from bound dye.
Series [3] deals with NCI-H522. Description: Growth inhibition of human NCI-H522 cells at 10 uM measured after 48 hrs by sulforhodamine B assay. The series is classed as functional, cell-based.
Series [4] deals with SF-539. The series can be described thus: Growth inhibition of human SF-539 cells measured after 48 hrs by sulforhodamine B assay. The class given is functional. The following applies: for CC50: read-out: LC50 (the source's name).
Series [5] relates to NCI/ADR-RES. The series can be described thus: Growth inhibition of human NCI-ADR-RES cells at 10 uM measured after 48 hrs by sulforhodamine B assay. The series is classed as functional, cell-based.
In series [6] the test system is NCI-H522. The series can be described thus: Growth inhibition of human NCI-H522 cells measured after 48 hrs by sulforhodamine B assay. The following applies: for CC50: read-out: LC50 (the source's name). The series is classed as functional.
Series [7] relates to MDA-MB-231. Description: Induction of apoptosis in human MDA-MB-231 cells assessed as late apoptotic cells at 10 uM measured after 24 hrs by Annexin V/7-AAD double staining based muse cell analyzer method (reference value: 1.44%). The class given is functional.
The test system of series [8] is MDA-MB-231. Description: Induction of apoptosis in human MDA-MB-231 cells assessed as viable cells at 10 uM measured after 24 hrs by Annexin V/7-AAD double staining based muse cell analyzer method (reference value: 96.21%). The series is classed as functional. The following applies: read-out: Activity.
The species entered for series [9] is Sus scrofa. Description: Inhibition of porcine brain tubulin polymerization assessed as microtubule destabilization at 10 uM measured at 60 secs interval for 60 mins in presence of GTP by fluorescence assay.
Series [10] is filed under the species Sus scrofa. The series can be described thus: Inhibition of porcine brain tubulin polymerization assessed as microtubule destabilization by measuring relative fluorescence unit at 10 uM measured at 60 secs interval for 60 mins in presence of GTP by fluorescence assay.
Series [11] has as its system MDA-MB-231. The series can be described thus: Induction of apoptosis in human MDA-MB-231 cells assessed as early apoptotic cells at 10 uM measured after 24 hrs by Annexin V/7-AAD double staining based muse cell analyzer method (reference value: 1.64%). The class given is functional.
Series [12] concerns MDA-MB-231. The series can be described thus: Induction of apoptosis in human MDA-MB-231 cells assessed as necrotic cells at 10 uM measured after 24 hrs by Annexin V/7-AAD double staining based muse cell analyzer method (reference value: 0.72%). The series is classed as functional.
Series [13] has as its system SK-MEL-5. The series can be described thus: Growth inhibition of human SK-MEL-5 cells at 10 uM measured after 48 hrs by sulforhodamine B assay. The series is classed as functional, cell-based.
Series [14] relates to MDA-MB-231. The series can be described thus: Cell cycle arrest in human MDA-MB-231 cells assessed as accumulation of cells at G2/M phase at 10 uM measured after 24 hrs by Muse cell analyzer based assay (reference value: 27.3%). The series is classed as functional.
The test system of series [15] is MDA-MB-435. The series can be described thus: Growth inhibition of human MDA-MB-435 cells measured after 48 hrs by sulforhodamine B assay. The series is classed as functional. The following applies: for CC50: read-out: LC50 (the source's name).
The subject of series [16] is MDA-MB-435. Description: Growth inhibition of human MDA-MB-435 cells at 10 uM measured after 48 hrs by sulforhodamine B assay. The series is classed as functional, cell-based.
Series [17] deals with MDA-MB-231. Description: Cytotoxicity against human MDA-MB-231 cells assessed as reduction in cell viability measured after 48 hrs by MTT assay. The series is classed as functional, cell-based. The following applies: MDA-MB-231, 48 h. For orientation: Formazan colour is commonly taken as a measure of viable cells.
Series [18] relates to MDA-MB-231. Description: Induction of morphological changes in human MDA-MB-231 cells assessed as loss of cell polarity at 10 uM measured after 24 hrs. The series is classed as functional, cell-based.
In series [19] the test system is COLO 205. Description: Growth inhibition of human COLO 205 cells at 10 uM measured after 48 hrs by sulforhodamine B assay. The class given is functional, cell-based.
For series [20], the system named is MDA-MB-231. The series can be described thus: Cell cycle arrest in human MDA-MB-231 cells assessed as accumulation of cells at G0/G1 phase at 10 uM measured after 24 hrs by Muse cell analyzer based assay (reference value: 59.7%). The class given is functional.
Series [21] relates to SK-MEL-5. Description: Growth inhibition of human SK-MEL-5 cells measured after 48 hrs by sulforhodamine B assay. The following applies: for CC50: read-out: LC50 (the source's name). The series is classed as functional.
Series [22] deals with MDA-MB-231. Description: Cell cycle arrest in human MDA-MB-231 cells assessed as accumulation of cells at S phase at 10 uM measured after 24 hrs by Muse cell analyzer based assay (reference value: 12.9%). The class given is functional.
The test system of series [23] is COLO 205. Description: Growth inhibition of human COLO 205 cells measured after 48 hrs by sulforhodamine B assay. The following applies: for CC50: read-out: LC50 (the source's name). The series is classed as functional.
Series [24] in a line: Cytotoxicity against human HaCaT cells assessed as reduction in cell viability measured after 48 hrs by MTT assay. The class given is toxicity, cell-based.
Series [25] relates to SF-295. Description: Growth inhibition of human SF-295 cells measured after 48 hrs by sulforhodamine B assay. The series is classed as functional. The following applies: read-out: LC50 (the source's name).
The test system of series [26] is SF-295. The series can be described thus: Growth inhibition of human SF-295 cells at 10 uM measured after 48 hrs by sulforhodamine B assay. The series is classed as functional, cell-based.

As a reminder, the GI50 is the concentration that inhibits growth by half. High values mean less potent growth inhibition, low ones more potent growth inhibition. `O=C(N/N=C/c1ccc(Br)s1)c1[nH]c2ccc(Br)cc2c1-c1ccccc1`: the GI50 in the series on NCI/ADR-RES [1], in the series with SF-539 [4] and in the series with NCI-H522 [6] was below 100 nM in each case. Besides, the CC50 in the series on NCI/ADR-RES [1], with SF-539 [4] and with NCI-H522 [6] was above 10000 nM in each case. Further, the “growth inhibition (GI)” value in the series on SF-539 [2], with NCI-H522 [3] and in the series on NCI/ADR-RES [5] was “Active” throughout.
In general, pIC50 refers to −log10 of the IC50, conventionally taken in molar units. As a reminder, the IC50 is the concentration that inhibits the measured activity by half. Regarding `COc1ccc(/C=N/NC(=O)c2[nH]c3ccc(Br)cc3c2-c2ccccc2)s1`, the Activity in the series with MDA-MB-231 [7] is 6.21%; in the series on MDA-MB-231 [11] it was 3.48%; in the series with MDA-MB-231 [12] it was 5.13%; in the series with MDA-MB-231 [14], 70.7%; with MDA-MB-231 [20], 17.9%; with MDA-MB-231 [22], 11.2%. The viability at 10 µM in the series on MDA-MB-231 [8] came to 85.2%. In addition, the “growth inhibition (GI)” value in the series on NCI-H522 [3], in the series on SK-MEL-5 [13], with MDA-MB-435 [16] and in the series on COLO 205 [19] was “Active” in each case. For the same molecule, the inhibition entry in the series filed under Sus scrofa [9] is “inactive”. The RFU in the series filed under Sus scrofa [10] turned out to be 45 a.u. Besides, the concentration for 50% growth inhibition (GI50) was 25.3 nM in the series on MDA-MB-435 [15], 52.3 nM in the series on SK-MEL-5 [21], 19.3 nM in the series with NCI-H522 [6] and 191 nM in the series with COLO 205 [23]. The CC50 in the series with MDA-MB-435 [15] was above 100000 nM; in the series with SK-MEL-5 [21], above 100000 nM; in the series on NCI-H522 [6], above 100000 nM; in the series with COLO 205 [23], 719 nM. Also, the pIC50 with MDA-MB-231 [17] is 6.25. The result with MDA-MB-231 [18] was Active. Moreover, the IC50 at 48 h in series [24] turned out to be 340 nM.
As to `O=C(N/N=C/c1ccc(-c2ccc(O)cc2)o1)c1[nH]c2ccc(Br)cc2c1-c1ccccc1`, the RFU in the series filed under Sus scrofa [10] was determined as 45 a.u. Also, the “growth inhibition (GI)” value in the series on SK-MEL-5 [13], in the series on COLO 205 [19] and in the series with SF-295 [26] was “Active” in each case. Also, the CC50 in the series with SK-MEL-5 [21] came to 4140 nM; in the series on SF-295 [25] it was 8090 nM; with COLO 205 [23], 7210 nM.
Consider `COc1ccsc1/C=N/NC(=O)c1[nH]c2ccc(Br)cc2c1-c1ccccc1`, for which the Activity with MDA-MB-231 [7] stood at 5.7%; in the series with MDA-MB-231 [11], 3.55%; in the series on MDA-MB-231 [12], 4.98%; in the series on MDA-MB-231 [14] it was 70%; in the series with MDA-MB-231 [20], 19.6%; in the series on MDA-MB-231 [22] it was 10.2%. For the same molecule, the viability at 10 µM in the series with MDA-MB-231 [8] was determined as 85.8%. The “growth inhibition (GI)” value with NCI-H522 [3], in the series with SK-MEL-5 [13], with MDA-MB-435 [16] and with COLO 205 [19] was “Active” throughout. Further, in the series listed under Sus scrofa [10], the RFU worked out at 20 a.u. The GI50 with MDA-MB-435 [15] came out at 240 nM; in the series on SK-MEL-5 [21], 321 nM; with NCI-H522 [6], 213 nM; in the series with COLO 205 [23], 435 nM. The CC50 is above 100000 nM in the series on MDA-MB-435 [15], above 100000 nM in the series with SK-MEL-5 [21], 8560 nM in the series on NCI-H522 [6] and 5920 nM in the series on COLO 205 [23]. In the series on MDA-MB-231 [17], the pIC50 was 5.38. Also, in the series with MDA-MB-231 [18], the result was Active. In series [24], the half-inhibitory concentration (IC50) at 48 h came out at 540 nM.
Take `COc1csc(/C=N/NC(=O)c2[nH]c3ccc(Br)cc3c2-c2ccccc2)c1`: the Activity in the series with MDA-MB-231 [7] is reported as 20.25%; in the series with MDA-MB-231 [11], 6.44%; with MDA-MB-231 [12], 6.61%; in the series with MDA-MB-231 [14], 74.5%; with MDA-MB-231 [20], 15.6%; with MDA-MB-231 [22] it was 10%. The viability at 10 µM in the series on MDA-MB-231 [8] stood at 66.7%. In addition, the “growth inhibition (GI)” value with NCI-H522 [3], with SK-MEL-5 [13], in the series with MDA-MB-435 [16] and with COLO 205 [19] was “Active” in each case. Further, the inhibition entry in the series filed under Sus scrofa [9] was “inactive”. Besides, the GI50 with MDA-MB-435 [15] is 19.1 nM; in the series with SK-MEL-5 [21], 18.6 nM; in the series on NCI-H522 [6], below 10 nM; in the series on COLO 205 [23], 19.1 nM. Also, the CC50 was 259 nM in the series with MDA-MB-435 [15], 74.9 nM with SK-MEL-5 [21], above 100000 nM in the series with NCI-H522 [6] and 70.8 nM in the series with COLO 205 [23]. In the series with MDA-MB-231 [17], the pIC50 was 6.80. The outcome in the series on MDA-MB-231 [18] was Active. The IC50 at 48 h in series [24] stood at 30 nM.
Turning to `O=C(N/N=C/c1ccc(Cl)s1)c1[nH]c2ccc(Br)cc2c1-c1ccccc1`, the GI50 with NCI/ADR-RES [1], with SF-539 [4] and in the series with NCI-H522 [6] was below 100 nM throughout. Also, the CC50 with NCI/ADR-RES [1], in the series with SF-539 [4] and in the series on NCI-H522 [6] was above 10000 nM each time. Moreover, the “growth inhibition (GI)” value with SF-539 [2], with NCI-H522 [3] and in the series on NCI/ADR-RES [5] was “Active” throughout.
